pEC50: −log10 of the molar value. Calls of active or inactive are those of the source. The calls are words filed in the database; no cut-off is given here.
Columns and labels:
Hepatitis C virus [1] = experiment: Antiviral activity against HCV J6/JFH/JC-1 infected in human Huh7.5 cells harboring NS3/4A A156T mutant assessed as inhibition of viral core protein levels at 20 uM treated with fresh media containing compound every 2 days by Western blot method; type: functional, organism-based; conditions: Hepacivirus hominis
Hepatitis C virus [2] = experiment: Antiviral activity against HCV J6/JFH/JC-1 infected in human Huh7.5 cells assessed as inhibition of NS3/4A protein levels at 0.5 uM by Western blot method; type: functional, organism-based; conditions: Hepacivirus hominis, TDE = time-dependent effect
Hepatitis C virus [3] = experiment: Antiviral activity against HCV J6/JFH/JC-1 infected in human Huh7.5 cells assessed as inhibition of NS3/4A levels at 10 uM treated with fresh media containing compound every 2 days in presence of NS5A inhibitor daclatasvir by Western blot method; type: functional, organism-based; conditions: Hepacivirus hominis
Hepatitis C virus [4] = experiment: Antiviral activity against HCV J6/JFH/JC-1 infected in human Huh7.5 cells assessed as inhibition of NS3/4A levels at 10 uM treated with fresh media containing compound every 2 days in presence of NS5B inhibitor sofosbuvir by Western blot method; type: functional, organism-based; conditions: Hepacivirus hominis
Hepatitis C virus [5] = experiment: Antiviral activity against HCV J6/JFH/JC-1 infected in human Huh7.5 cells assessed as inhibition of viral core protein levels at 10 uM treated with fresh media containing compound every 2 days in presence of NS5B inhibitor sofosbuvir by Western blot method; type: functional, organism-based; conditions: Hepacivirus hominis
[6] = MRT in mouse at 25 mg/kg, po after 0.25 to 6 hrs; type: ADME, organism-based; conditions: in vivo
Hepatitis C virus [7] = experiment: Antiviral activity against HCV J6/JFH/JC-1 infected in human Huh7.5 cells assessed as inhibition of NS3/4A levels at 10 uM treated with fresh media containing compound every 2 days in presence of NS3/4A inhibitor simeprevir by Western blot method; type: functional, organism-based; conditions: Hepacivirus hominis
Hepatitis C virus [8] = experiment: Antiviral activity against HCV J6/JFH/JC-1 infected in human Huh7.5 cells assessed as inhibition of NS3/4A levels at 20 uM incubated for 2 to 24 hrs measured within 72 hrs by Western blot method; type: functional, organism-based; conditions: Hepacivirus hominis
Hepatitis C virus [9] = experiment: Antiviral activity against HCV J6/JFH/JC-1 infected in human Huh7.5 cells assessed as inhibition of viral core protein levels at 10 uM treated with fresh media containing compound every 2 days in presence of NS3/4A inhibitor simeprevir by Western blot method; type: functional, organism-based; conditions: Hepacivirus hominis
Hepatitis C virus [10] = experiment: Antiviral activity against HCV J6/JFH/JC-1 infected in human Huh7.5 cells assessed as inhibition of viral core protein levels at 20 uM incubated for 2 to 24 hrs measured within 72 hrs by Western blot method; type: functional, organism-based; conditions: Hepacivirus hominis
Hepatitis C virus [11] = experiment: Antiviral activity against HCV J6/JFH/JC-1 infected in human Huh7.5 cells harboring […] S282T mutant assessed as inhibition of viral core protein levels at 20 uM treated with fresh media containing compound every 2 days by Western blot method; type: functional, organism-based; conditions: Hepacivirus hominis
[12] = Half life in mouse at 25 mg/kg, po after 0.25 to 6 hrs; type: ADME, organism-based; conditions: in vivo
Hepatitis C virus [13] = experiment: Antiviral activity against HCV infected in human GS4.3 cells assessed as inhibition of viral core protein levels at 20 uM treated with fresh media containing compound every 2 days measured after 6 days by Western blot method; type: functional, organism-based; conditions: Hepacivirus hominis
[14] = Tmax in mouse at 25 mg/kg, po after 0.25 to 6 hrs; type: ADME, organism-based; conditions: in vivo
Hepatitis C virus [15] = experiment: Antiviral activity against HCV J6/JFH/JC-1 infected in human Huh7.5 cells assessed as inhibition of viral core protein levels at 20 uM preincubated for 2 hrs followed addition of Huh7.5 cells for 4 hrs measured within 72 hrs by Western blot method; type: functional, organism-based; conditions: Hepacivirus hominis
Hepatitis C virus [16] = experiment: Antiviral activity against HCV J6/JFH/JC-1 infected in human Huh7.5 cells assessed as inhibition of NS3/4A S282T mutant levels at 20 uM treated with fresh media containing compound every 2 days by Western blot method; type: functional, organism-based; conditions: Hepacivirus hominis
Hepatitis C virus [17] = experiment: Antiviral activity against HCV J6/JFH/JC-1 infected in human Huh7.5 cells harboring NS3/4A D168V mutant assessed as inhibition of viral core protein levels at 20 uM treated with fresh media containing compound every 2 days by Western blot method; type: functional, organism-based; conditions: Hepacivirus hominis
Hepatitis C virus [18] = experiment: Antiviral activity against 22.5 to 90 IU/cell of HCV J6/JFH/JC-1 infected in human Huh7.5 cells assessed as inhibition of NS3/4A levels at 20 uM treated with fresh media containing compound every 2 days by Western blot method; type: functional, organism-based; conditions: Hepacivirus hominis
[19] = AUC (0 to t) in mouse at 25 mg/kg, po after 0.25 to 6 hrs; type: ADME, organism-based; parameters: time upper 6 hr, time lower 0.25 hr, dose 25 mg/kg, route oral; conditions: in vivo
Hepatitis C virus [20] = experiment: Antiviral activity against HCV infected in human GS4.3 cells assessed as inhibition of NS3/4A levels at 20 uM treated with fresh media containing compound every 2 days measured after 6 days by Western blot method; type: functional, organism-based; conditions: Hepacivirus hominis
Hepatitis C virus [21] = experiment: Antiviral activity against HCV J6/JFH/JC-1 infected in human Huh7.5 cells assessed as inhibition of viral core protein levels after 72 hrs by Western blot method; type: functional, organism-based; conditions: Hepacivirus hominis
[22] = Acute toxicity in po dosed Kunming mouse measured for 7 days; type: organism-based; conditions: in vivo
[23] = Cmax in mouse at 25 mg/kg, po after 0.25 to 6 hrs; type: ADME, organism-based; parameters: dose 25 mg/kg, route oral; conditions: in vivo
Hepatitis C virus [24] = experiment: Antiviral activity against 22.5 to 90 IU/cell of HCV J6/JFH/JC-1 infected in human Huh7.5 cells assessed as inhibition of viral core protein levels at 20 uM treated with fresh media containing compound every 2 days by Western blot method; type: functional, organism-based; conditions: Hepacivirus hominis
[25] = Selectivity index, ratio of CC50 for human Huh7.5 cells to EC50 for HCV J6/JFH/JC-1; type: toxicity; conditions: read-out: Ratio CC50/EC50
Hepatitis C virus [26] = experiment: Antiviral activity against HCV J6/JFH/JC-1 infected in human Huh7.5 cells assessed as inhibition of NS3/4A levels after 72 hrs by Western blot method; type: functional, organism-based; conditions: Hepacivirus hominis
[27] = Cytotoxicity against human Huh7.5 cells after 72 hrs by MTT assay; type: cell-based
Hepatitis C virus [28] = experiment: Antiviral activity against HCV J6/JFH/JC-1 infected in human Huh7.5 cells assessed as inhibition of NS3/4A levels at 20 uM preincubated for 2 hrs followed addition of Huh7.5 cells for 4 hrs measured within 72 hrs by Western blot method; type: functional, organism-based; conditions: Hepacivirus hominis
Hepatitis C virus [29] = experiment: Antiviral activity against HCV J6/JFH/JC-1 infected in human Huh7.5 cells assessed as inhibition of NS3/4A A156T mutant levels at 20 uM treated with fresh media containing compound every 2 days by Western blot method; type: functional, organism-based; conditions: Hepacivirus hominis
Hepatitis C virus [30] = experiment: Antiviral activity against HCV J6/JFH/JC-1 infected in human Huh7.5 cells assessed as inhibition of viral core protein levels at 0.5 uM by Western blot method; type: functional, organism-based; conditions: Hepacivirus hominis, TDE = time-dependent effect
[31] = biological target: Hepatitis C virus serine protease, NS3/NS4A (Hepatitis C virus) (UniProt D2K2A8+A3EZI9); experiment: Inhibition of HCV NS3/4A protease at 200 uM; type: protein-complex assay; conditions: Hepacivirus hominis
Hepatitis C virus [32] = experiment: Antiviral activity against HCV J6/JFH/JC-1 infected in human Huh7.5 cells assessed as inhibition of viral core protein levels at 10 uM treated with fresh media containing compound every 2 days in presence of NS5A inhibitor daclatasvir by Western blot method; type: functional, organism-based; conditions: Hepacivirus hominis
Hepatitis C virus [33] = experiment: Antiviral activity against HCV J6/JFH/JC-1 infected in human Huh7.5 cells assessed as inhibition of viral RNA replication after 72 hrs by qRT-PCR method; type: functional, organism-based, Hepacivirus hominis; conditions: J6/JFH/JC-1, Huh7.5, 72 h
Hepatitis C virus [34] = experiment: Antiviral activity against HCV J6/JFH/JC-1 infected in human Huh7.5 cells assessed as inhibition of NS3/4A D168V mutant levels at 20 uM treated with fresh media containing compound every 2 days by Western blot method; type: functional, organism-based; conditions: Hepacivirus hominis
Hepatitis C virus [35] = experiment: Antiviral activity against HCV J6/JFH/JC-1 infected in human Huh7.5 cells assessed as inhibition of NS3/4A S282T mutant levels at 0.01 to 1 uM treated with fresh media containing compound every 2 days by Western blot method; type: functional, organism-based; conditions: Hepacivirus hominis
Hepatitis C virus [36] = experiment: Antiviral activity against 22.5 to 90 IU/cell of HCV J6/JFH/JC-1 infected in human Huh7.5 cells assessed as inhibition of viral core protein levels at 0.05 uM treated with fresh media containing compound every 2 days by Western blot method; type: functional, organism-based; conditions: Hepacivirus hominis
Hepatitis C virus [37] = experiment: Antiviral activity against HCV infected in human GS4.3 cells assessed as inhibition of NS3/4A levels at 0.8 uM treated with fresh media containing compound every 2 days measured after 6 days by Western blot method; type: functional, organism-based; conditions: Hepacivirus hominis
Hepatitis C virus [38] = experiment: Antiviral activity against 22.5 to 90 IU/cell of HCV J6/JFH/JC-1 infected in human Huh7.5 cells assessed as inhibition of NS3/4A levels at 0.05 uM treated with fresh media containing compound every 2 days by Western blot method; type: functional, organism-based; conditions: Hepacivirus hominis
Hepatitis C virus [39] = experiment: Antiviral activity against HCV infected in human GS4.3 cells assessed as inhibition of viral core protein levels at 0.8 uM treated with fresh media containing compound every 2 days measured after 6 days by Western blot method; type: functional, organism-based; conditions: Hepacivirus hominis
Hepatitis C virus [40] = experiment: Antiviral activity against HCV J6/JFH/JC-1 infected in human Huh7.5 cells harboring […] S282T mutant assessed as inhibition of viral core protein levels at 0.01 to 1 uM treated with fresh media containing compound every 2 days by Western blot method; type: functional, organism-based; conditions: Hepacivirus hominis

For `CN1CCN(S(=O)(=O)N2CCCC3=C[C@H]4C[C@H](CN5CCCC[C@H]45)[C@@H]32)CC1`, the inhibition (Hepatitis C virus [1]) was “Active”, the inhibition (Hepatitis C virus [2]) was “Tde” and the inhibition (Hepatitis C virus [3]) was “Active”. For the same molecule, the inhibition (Hepatitis C virus [4]) was “Active”, the inhibition (Hepatitis C virus [5]) was “Active” and the MRT [6] was 6.11 h. For the same molecule, the inhibition (Hepatitis C virus [7]) was “Active”, the inhibition (Hepatitis C virus [8]) was “Active” and the inhibition (Hepatitis C virus [9]) was “Active”. For the same molecule, the inhibition (Hepatitis C virus [10]) was “Active”, the inhibition (Hepatitis C virus [11]) was “Active” and the half-life [12] was 9.47 h. The inhibition (Hepatitis C virus [13]) was “Active”, the Tmax [14] was 1 h and the inhibition (Hepatitis C virus [15]) was “Active”. The inhibition (Hepatitis C virus [16]) was “Active”, the inhibition (Hepatitis C virus [17]) was “Active” and the inhibition (Hepatitis C virus [18]) was “Active”. For the same molecule, the AUC(0-t) [19] was 7.6 µM·h, the inhibition (Hepatitis C virus [20]) was “Active” and the inhibition (Hepatitis C virus [21]) was “Dose-dependent effect”. The LD50 at 168 h [22] was > 1000 mg/kg, the Cmax [23] was 1370 nM and the inhibition (Hepatitis C virus [24]) was “Active”. For the same molecule, the selectivity ratio [25] was > 140, the inhibition (Hepatitis C virus [26]) was “Dose-dependent effect” and the CC50 at 72 h [27] was > 500 µM. The inhibition (Hepatitis C virus [28]) was “Active”, the inhibition (Hepatitis C virus [29]) was “Active” and the inhibition (Hepatitis C virus [30]) was “Tde”. For the same molecule, the inhibition [31] was “inactive”, the inhibition (Hepatitis C virus [32]) was “Active” and the pEC50 (Hepatitis C virus [33]) was 5.45. For the same molecule, the inhibition (Hepatitis C virus [34]) was “Active”.

With `CC(C)OC(=O)[C@H](C)NP(=O)(OC[C@H]1O[C@@H](n2ccc(=O)[nH]c2=O)[C@](C)(F)[C@@H]1O)Oc1ccccc1` (stereo not given in full) the inhibition (Hepatitis C virus [35]) was “inactive”, the inhibition (Hepatitis C virus [36]) was “inactive” and the inhibition (Hepatitis C virus [37]) was “Active”. The inhibition (Hepatitis C virus [38]) was “inactive”, the inhibition (Hepatitis C virus [39]) was “Active” and the inhibition (Hepatitis C virus [40]) was “inactive”.

Reference: ChEMBL document CHEMBL4251597, “Discovery and evolution of aloperine derivatives as a new family of HCV inhibitors with novel mechanism” (Eur J Med Chem, 2018)
